Assay [1] deals with T1, NUAK family SNF1-like kinase 2 (Homo sapiens) (UniProt Q9H093).
T1 sequence (whole entry): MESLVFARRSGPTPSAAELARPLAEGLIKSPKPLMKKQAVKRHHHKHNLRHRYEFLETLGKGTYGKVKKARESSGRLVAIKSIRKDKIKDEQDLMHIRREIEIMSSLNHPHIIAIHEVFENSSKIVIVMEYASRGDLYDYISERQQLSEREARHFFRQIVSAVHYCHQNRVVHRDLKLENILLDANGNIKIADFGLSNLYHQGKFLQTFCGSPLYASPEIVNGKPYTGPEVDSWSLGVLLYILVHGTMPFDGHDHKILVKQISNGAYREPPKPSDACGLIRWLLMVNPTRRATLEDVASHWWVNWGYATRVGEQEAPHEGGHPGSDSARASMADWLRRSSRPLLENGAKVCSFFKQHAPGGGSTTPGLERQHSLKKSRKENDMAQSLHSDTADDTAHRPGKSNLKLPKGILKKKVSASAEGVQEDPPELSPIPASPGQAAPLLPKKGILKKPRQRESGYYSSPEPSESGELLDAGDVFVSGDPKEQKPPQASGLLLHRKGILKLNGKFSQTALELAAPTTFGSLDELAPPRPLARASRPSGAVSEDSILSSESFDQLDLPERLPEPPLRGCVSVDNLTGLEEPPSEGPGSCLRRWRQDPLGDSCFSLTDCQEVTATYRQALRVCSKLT
The assay can be described thus: Inhibition of SNARK (unknown origin) at 10 uM after 120 mins P33 radiolabeled kinase activity assay.

Assay [2] addresses T2, Activin receptor type-1 (Homo sapiens) (UniProt Q04771).
T2 sequence (whole entry): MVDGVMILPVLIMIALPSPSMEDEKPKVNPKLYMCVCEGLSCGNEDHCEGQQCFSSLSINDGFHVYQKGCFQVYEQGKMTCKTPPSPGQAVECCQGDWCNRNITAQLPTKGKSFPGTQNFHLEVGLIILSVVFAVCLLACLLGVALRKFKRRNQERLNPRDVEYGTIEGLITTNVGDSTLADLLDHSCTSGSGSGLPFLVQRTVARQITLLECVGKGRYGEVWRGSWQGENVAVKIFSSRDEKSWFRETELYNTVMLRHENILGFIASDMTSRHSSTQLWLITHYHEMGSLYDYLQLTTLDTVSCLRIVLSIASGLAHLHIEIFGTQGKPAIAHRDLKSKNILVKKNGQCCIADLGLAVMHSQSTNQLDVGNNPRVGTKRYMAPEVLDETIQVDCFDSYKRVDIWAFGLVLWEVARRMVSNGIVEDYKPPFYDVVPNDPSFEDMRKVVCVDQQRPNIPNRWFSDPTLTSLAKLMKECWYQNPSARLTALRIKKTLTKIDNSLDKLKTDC
The assay is described as follows: Inhibition of ALK2 (unknown origin) at 10 uM after 120 mins P33 radiolabeled kinase activity assay.

The target of assay [3] is Insulin receptor (Homo sapiens) (UniProt P06213). The assay can be described thus: Inhibition of IR (unknown origin) at 10 uM after 120 mins P33 radiolabeled kinase activity assay.
For assay [4], the target named is T3, Serine/threonine-protein kinase ULK1 (Homo sapiens) (UniProt O75385).
T3 sequence (whole entry): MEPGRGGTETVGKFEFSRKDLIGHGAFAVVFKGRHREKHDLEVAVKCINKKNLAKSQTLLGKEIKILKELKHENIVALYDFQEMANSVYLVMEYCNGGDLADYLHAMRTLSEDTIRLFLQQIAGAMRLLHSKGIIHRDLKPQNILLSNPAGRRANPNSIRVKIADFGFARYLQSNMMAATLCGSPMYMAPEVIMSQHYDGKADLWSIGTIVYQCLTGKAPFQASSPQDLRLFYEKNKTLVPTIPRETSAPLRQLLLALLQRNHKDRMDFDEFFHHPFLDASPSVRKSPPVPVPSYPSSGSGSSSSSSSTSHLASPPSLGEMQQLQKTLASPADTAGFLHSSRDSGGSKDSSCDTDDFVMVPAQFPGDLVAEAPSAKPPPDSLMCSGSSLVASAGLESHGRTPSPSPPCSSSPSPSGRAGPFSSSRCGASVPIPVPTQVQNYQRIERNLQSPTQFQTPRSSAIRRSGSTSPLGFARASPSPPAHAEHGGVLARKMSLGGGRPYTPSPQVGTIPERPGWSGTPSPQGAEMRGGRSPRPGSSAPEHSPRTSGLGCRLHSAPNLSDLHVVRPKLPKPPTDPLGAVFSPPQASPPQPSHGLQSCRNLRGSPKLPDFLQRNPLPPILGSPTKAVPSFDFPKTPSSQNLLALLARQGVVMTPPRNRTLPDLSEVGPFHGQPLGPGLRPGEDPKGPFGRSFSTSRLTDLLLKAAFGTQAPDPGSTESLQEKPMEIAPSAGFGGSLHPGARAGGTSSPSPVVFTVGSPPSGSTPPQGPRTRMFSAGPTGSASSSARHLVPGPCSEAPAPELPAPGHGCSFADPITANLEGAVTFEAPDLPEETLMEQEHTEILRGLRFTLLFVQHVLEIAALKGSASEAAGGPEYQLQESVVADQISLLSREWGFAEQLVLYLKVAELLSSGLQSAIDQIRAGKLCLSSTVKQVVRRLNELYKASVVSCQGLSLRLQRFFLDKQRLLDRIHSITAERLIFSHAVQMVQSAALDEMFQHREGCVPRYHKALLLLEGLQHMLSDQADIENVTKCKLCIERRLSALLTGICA
The assay is described as follows: Inhibition of ULK1 (unknown origin) at 10 uM after 120 mins P33 radiolabeled kinase activity assay.

For assay [5], the target named is G protein-coupled receptor kinase 6 (Homo sapiens) (UniProt P43250). The assay can be described thus: Inhibition of GRK6 (unknown origin) at 10 uM after 120 mins P33 radiolabeled kinase activity assay.
The target of assay [6] is Serine/threonine-protein kinase 33 (Homo sapiens) (UniProt Q9BYT3). The assay is described as follows: Inhibition of STK33 (unknown origin) at 10 uM after 120 mins P33 radiolabeled kinase activity assay.
The target of assay [7] is Serine/threonine-protein kinase MRCK gamma (Homo sapiens) (UniProt Q6DT37). The assay is described as follows: Inhibition of DMPK2 (unknown origin) at 10 uM after 120 mins P33 radiolabeled kinase activity assay.

In general, inhibition refers to the relative decrease from the control value, in per cent.

Chain of G protein-coupled receptor kinase 6 (Homo sapiens) (P43250 whole entry, looked up): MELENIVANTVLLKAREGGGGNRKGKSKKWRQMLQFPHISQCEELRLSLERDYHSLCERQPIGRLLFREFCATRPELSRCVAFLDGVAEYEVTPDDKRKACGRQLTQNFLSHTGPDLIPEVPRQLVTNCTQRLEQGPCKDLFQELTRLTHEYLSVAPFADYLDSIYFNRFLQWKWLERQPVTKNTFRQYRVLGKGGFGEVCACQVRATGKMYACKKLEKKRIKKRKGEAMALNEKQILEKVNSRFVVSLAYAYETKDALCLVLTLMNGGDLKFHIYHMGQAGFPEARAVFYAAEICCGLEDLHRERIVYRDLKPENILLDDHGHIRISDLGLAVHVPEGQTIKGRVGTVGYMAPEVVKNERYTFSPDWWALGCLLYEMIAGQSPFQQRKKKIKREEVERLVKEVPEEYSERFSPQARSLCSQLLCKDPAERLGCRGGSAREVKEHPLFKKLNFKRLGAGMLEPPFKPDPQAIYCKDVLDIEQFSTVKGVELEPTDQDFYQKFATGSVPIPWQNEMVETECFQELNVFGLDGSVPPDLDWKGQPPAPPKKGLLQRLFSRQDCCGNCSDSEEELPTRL
Chain of Serine/threonine-protein kinase 33 (Homo sapiens) (Q9BYT3 whole entry, looked up): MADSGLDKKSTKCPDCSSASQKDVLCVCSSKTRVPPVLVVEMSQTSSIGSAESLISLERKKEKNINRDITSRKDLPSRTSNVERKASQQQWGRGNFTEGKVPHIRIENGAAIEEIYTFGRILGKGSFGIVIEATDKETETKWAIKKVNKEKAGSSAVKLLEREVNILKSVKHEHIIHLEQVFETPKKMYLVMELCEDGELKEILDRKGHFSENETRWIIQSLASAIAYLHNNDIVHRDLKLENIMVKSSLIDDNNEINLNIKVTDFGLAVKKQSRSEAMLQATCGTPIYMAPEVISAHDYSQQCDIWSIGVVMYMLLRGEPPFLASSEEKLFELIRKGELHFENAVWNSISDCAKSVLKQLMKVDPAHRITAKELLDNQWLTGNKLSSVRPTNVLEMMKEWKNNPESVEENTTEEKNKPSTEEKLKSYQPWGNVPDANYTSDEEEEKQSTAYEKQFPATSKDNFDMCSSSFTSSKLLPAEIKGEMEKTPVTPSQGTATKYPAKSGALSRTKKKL
Chain of Insulin receptor (Homo sapiens) (P06213 28-758 limits assumed): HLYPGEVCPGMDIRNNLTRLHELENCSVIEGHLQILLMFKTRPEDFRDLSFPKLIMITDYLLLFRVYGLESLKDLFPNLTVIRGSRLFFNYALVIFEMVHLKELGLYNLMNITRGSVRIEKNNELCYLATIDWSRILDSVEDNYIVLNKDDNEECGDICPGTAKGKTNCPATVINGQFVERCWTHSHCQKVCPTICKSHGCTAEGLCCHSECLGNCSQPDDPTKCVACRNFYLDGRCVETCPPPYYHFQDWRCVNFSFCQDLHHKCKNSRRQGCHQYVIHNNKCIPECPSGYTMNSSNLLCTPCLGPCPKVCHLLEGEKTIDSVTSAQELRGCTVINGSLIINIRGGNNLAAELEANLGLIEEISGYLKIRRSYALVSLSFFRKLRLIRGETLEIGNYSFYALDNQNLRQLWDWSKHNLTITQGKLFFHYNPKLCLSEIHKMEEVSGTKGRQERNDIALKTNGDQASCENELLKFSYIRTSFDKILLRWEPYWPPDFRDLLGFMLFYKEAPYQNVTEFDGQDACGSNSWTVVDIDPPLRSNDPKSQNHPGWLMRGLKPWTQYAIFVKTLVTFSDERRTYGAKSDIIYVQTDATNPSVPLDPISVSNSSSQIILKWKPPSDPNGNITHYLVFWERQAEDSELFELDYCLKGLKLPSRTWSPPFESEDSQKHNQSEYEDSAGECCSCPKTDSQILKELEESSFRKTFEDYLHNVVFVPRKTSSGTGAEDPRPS
Chain of Insulin receptor (Homo sapiens) (P06213 763-1382 limits assumed): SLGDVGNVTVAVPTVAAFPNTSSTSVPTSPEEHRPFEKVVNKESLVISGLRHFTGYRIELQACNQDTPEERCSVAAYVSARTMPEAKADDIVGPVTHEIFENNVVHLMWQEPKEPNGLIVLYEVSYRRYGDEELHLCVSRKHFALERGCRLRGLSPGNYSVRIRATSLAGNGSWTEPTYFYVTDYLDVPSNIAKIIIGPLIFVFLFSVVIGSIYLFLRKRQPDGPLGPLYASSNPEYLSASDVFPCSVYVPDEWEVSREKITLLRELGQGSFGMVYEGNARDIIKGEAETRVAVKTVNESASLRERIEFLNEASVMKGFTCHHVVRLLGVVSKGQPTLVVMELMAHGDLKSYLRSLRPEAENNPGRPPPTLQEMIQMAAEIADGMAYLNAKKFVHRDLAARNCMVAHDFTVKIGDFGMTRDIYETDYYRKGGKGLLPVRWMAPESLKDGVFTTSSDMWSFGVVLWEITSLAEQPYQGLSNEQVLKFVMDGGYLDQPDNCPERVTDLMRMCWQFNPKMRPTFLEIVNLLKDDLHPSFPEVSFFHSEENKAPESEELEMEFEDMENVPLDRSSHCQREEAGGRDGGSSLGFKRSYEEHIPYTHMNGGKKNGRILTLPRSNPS
Chain of Serine/threonine-protein kinase MRCK gamma (Homo sapiens) (Q6DT37 whole entry): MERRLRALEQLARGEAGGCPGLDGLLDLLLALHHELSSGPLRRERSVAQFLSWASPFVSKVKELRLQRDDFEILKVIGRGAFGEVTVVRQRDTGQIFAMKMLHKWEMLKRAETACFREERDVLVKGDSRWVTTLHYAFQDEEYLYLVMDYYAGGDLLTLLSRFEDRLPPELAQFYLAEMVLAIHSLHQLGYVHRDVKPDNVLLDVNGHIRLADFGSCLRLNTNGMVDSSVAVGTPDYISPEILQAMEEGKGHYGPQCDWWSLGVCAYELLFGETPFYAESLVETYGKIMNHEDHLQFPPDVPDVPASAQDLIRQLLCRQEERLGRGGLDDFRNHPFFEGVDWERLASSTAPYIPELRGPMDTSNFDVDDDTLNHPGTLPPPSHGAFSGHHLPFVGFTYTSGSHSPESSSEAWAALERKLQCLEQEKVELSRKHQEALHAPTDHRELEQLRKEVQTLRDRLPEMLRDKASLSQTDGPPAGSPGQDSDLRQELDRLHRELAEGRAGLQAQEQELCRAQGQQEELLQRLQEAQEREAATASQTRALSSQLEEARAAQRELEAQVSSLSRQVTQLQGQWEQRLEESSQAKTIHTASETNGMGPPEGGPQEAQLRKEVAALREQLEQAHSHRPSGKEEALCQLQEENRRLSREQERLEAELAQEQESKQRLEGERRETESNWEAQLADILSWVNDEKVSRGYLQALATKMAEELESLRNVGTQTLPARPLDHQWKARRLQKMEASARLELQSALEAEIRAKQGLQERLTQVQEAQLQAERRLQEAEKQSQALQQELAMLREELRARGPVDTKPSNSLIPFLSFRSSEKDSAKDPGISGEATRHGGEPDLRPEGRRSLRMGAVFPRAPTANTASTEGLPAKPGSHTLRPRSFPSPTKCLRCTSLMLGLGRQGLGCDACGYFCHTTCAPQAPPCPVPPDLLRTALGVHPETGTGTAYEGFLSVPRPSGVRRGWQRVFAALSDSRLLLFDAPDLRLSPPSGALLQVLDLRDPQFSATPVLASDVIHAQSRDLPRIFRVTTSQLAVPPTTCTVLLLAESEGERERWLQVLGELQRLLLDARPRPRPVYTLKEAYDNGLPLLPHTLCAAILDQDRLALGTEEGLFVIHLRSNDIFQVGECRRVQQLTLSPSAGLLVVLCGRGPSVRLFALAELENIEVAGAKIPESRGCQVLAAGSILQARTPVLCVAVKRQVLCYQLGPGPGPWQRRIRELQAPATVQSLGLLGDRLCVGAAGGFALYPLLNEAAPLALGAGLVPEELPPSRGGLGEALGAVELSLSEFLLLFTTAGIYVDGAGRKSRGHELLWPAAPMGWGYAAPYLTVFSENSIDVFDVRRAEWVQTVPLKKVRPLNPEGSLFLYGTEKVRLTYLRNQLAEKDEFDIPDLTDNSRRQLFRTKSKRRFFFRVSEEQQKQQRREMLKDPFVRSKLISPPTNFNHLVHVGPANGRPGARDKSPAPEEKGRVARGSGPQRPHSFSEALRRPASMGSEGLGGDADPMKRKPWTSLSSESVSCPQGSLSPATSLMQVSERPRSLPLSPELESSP

Take `CS(=O)(=O)c1cccc(Nc2nccc(-c3sc(N4CCOCC4)nc3-c3cccc(NS(=O)(=O)c4c(F)cccc4F)c3)n2)c1`: the inhibition in assay [1] was 2.62%; in assay [2], 85.2%; in assay [3], 0.58%; in assay [4], 52.4%; in assay [5], -5.6%; in assay [6], 29.3%. In addition, the inhibition in assay [7] was -3.32%.
`CC(C)(C)c1cc(NC(=O)Nc2ccc(Oc3ccncc3)cc2)no1`: the inhibition in assay [1] is -1.05%; in assay [2], -3.19%; in assay [3], 21.6%; in assay [4], 5.71%; in assay [5], -8.96%; in assay [6] it was 36.7%. In addition, the inhibition in assay [7] was -1.44%.
For the compound `COCCNC(=O)c1ccc2c(c1)nc(-c1cnc(-c3ccc(Cl)cc3)[nH]1)n2CCOC`, the inhibition in assay [1] is 2.98%; in assay [2] it was 10.4%; in assay [3] it was 2.89%; in assay [4], 3.62%; in assay [5], -7.62%; in assay [6], 10.6%. Besides, the inhibition in assay [7] was -3.48%.
